Reference: BindingDB's records for doi:10.1021/cb400526n (Academy of Sciences of The Czech Republic, 2013)

Target: Aldo-keto reductase family 1 member B1 (Homo sapiens, UniProt P15121)
Assay: IC50 Activity Assays
Conditions: pH 7; 25 °C
Experimental: The final reaction volume was 500uL per reaction. All compounds were dissolved in dimethyl sulphoxide, and the corresponding solution was added to the cell and incubated for 5 min at 25 degrees Celsius prior to the addition of the substrate. The reaction was initiated by the addition of 1mM glyceraldehyde, and the decrease in optical density at 340nm was monitored for 3 min at 25 degrees Celsius in a UV-vis spectrophotometer.

| IC50 [nM] | Structure (SMILES) |
| --- | --- |
| 300 | O=C(O)COc1cc(Cl)ccc1C(=O)NCc1c(F)c(F)c(Br)c(F)c1F [MK319] |
| 710 | O=C(O)COc1cc(Cl)ccc1C(=O)NCc1ccc(Br)cc1 [MK181] |
| 1190 | O=C(O)COc1cc(Cl)ccc1C(=O)NCc1c(F)cc(Br)cc1F [MK408] |
| 1360 | O=C(O)COc1cc(Cl)ccc1C(=O)NCc1c(F)cc(I)cc1F [MK409] |
| 400 | O=C(O)COc1cc(Cl)ccc1C(=O)NCc1ccc(Br)cc1F [IDD388] |
| 190 | O=C(O)COc1cc(Cl)ccc1C(=O)NCc1ccc(I)cc1F [MK315] |
| 1900 | O=C(O)COc1cc(Cl)ccc1C(=O)NCc1ccc(I)cc1 [MK257] |
